{
  "source": "ChEMBL document CHEMBL6074641",
  "about": "“Polypharmacological Drug Design Guided by Integrating Phenotypic and Restricted Fragment Docking Strategies” (J Med Chem, 2024)",
  "key": {"[1]": {"test_system": "Microglia", "assay": "Anti-necroptosis activity in LPS/zVAD stimulated mouse primary microglia assessed as reversal of mitochondrial swelling by TEM analysis", "type": "functional, cell-based"}, "[2]": {"test_system": "Mus musculus", "assay": "Anti-alzheimer activity against 5 month old APP/PS1 transgenic mouse model assessed as […] at 10 mg/kg, po administered 4 times per week for 4 weeks measured after 2 days", "type": "functional, organism-based", "settings": "time 30.0 day"}, "[3]": {"test_system": "Mus musculus", "assay": "Downregulation of ALK phosphorylation in 3xTg mouse hippocampus at 2 to 10 mg/kg, po by immunohistochemistry analysis", "type": "functional, organism-based", "settings": "dose 2-10 mg/kg"}, "[4]": {"test_system": "Mus musculus", "assay": "Anti-alzheimer activity against 5 month old APP/PS1 transgenic mouse model assessed as increase in searching frequency towards annulus at 10 mg/kg, po administered 4 times per week for 4 weeks", "type": "functional, organism-based"}, "[5]": {"assay": "Half-life in C57BL/6 mouse brain at 10 mg/kg, po measured upto 24 hrs by LC-MS/MS analysis", "type": "ADME, organism-based"}, "[6]": {"test_system": "Mus musculus", "assay": "Anti-alzheimer activity against 8 month old 3xTg mouse model assessed as improved learning ability at 2 to 10 mg/kg, po administered 4 times per week for 4 weeks", "type": "functional, organism-based", "settings": "dose 2-10 mg/kg"}, "[7]": {"test_system": "Microglia", "assay": "Anti-necroptosis activity in LPS/zVAD stimulated mouse primary microglia transfected with flag-tagged RIPK1 plasmid assessed as protection of microglia cells at 100 nM", "type": "functional, cell-based"}, "[8]": {"assay": "Cmax in C57BL/6 mouse brain at 10 mg/kg, po measured upto 24 hrs by LC-MS/MS analysis", "type": "ADME, organism-based"}, "[9]": {"test_system": "BV-2", "assay": "Anti-inflammatory activity against LPS/zVAD treated mouse BV-2 cells assessed as decrease in IL-1beta release at 100 nM by ELISA", "type": "functional, cell-based"}, "[10]": {"test_system": "Microglia", "assay": "Anti-necroptosis activity in LPS/zVAD stimulated mouse primary microglia overexpressed with ALK assessed as reversal of mitochondrial swelling by TEM analysis", "type": "functional, cell-based"}, "[11]": {"test_system": "Microglia", "assay": "Anti-necroptosis activity in LPS/zVAD stimulated mouse primary microglia overexpressed with MAP4K4 assessed as reversal of translucent cytoplasm by TEM analysis", "type": "functional, cell-based"}, "[12]": {"test_system": "Mus musculus", "assay": "Anti-alzheimer activity in 8 month old 3xTg mouse model assessed as reversal of transcriptomic changes in Hba-a1 at 10 mg/kg, po", "type": "functional, organism-based"}, "[13]": {"test_system": "Mus musculus", "assay": "Anti-alzheimer activity against 8 month old 3xTg mouse model assessed as increase in searching frequency towards annulus at 10 mg/kg, po administered 4 times per week for 4 weeks", "type": "functional, organism-based"}, "[14]": {"test_system": "Mus musculus", "assay": "Anti-alzheimer activity against 5 month old APP/PS1 transgenic mouse model assessed as decrease in anxiety level at 2 to 10 mg/kg, po administered 4 times per week for 4 weeks", "type": "functional, organism-based", "settings": "dose 2-10 mg/kg"}, "[15]": {"test_system": "Mus musculus", "assay": "Anti-alzheimer activity against 8 month old 3xTg mouse model assessed as decrease in restlessness at 2 to 10 mg/kg, po administered 4 times per week for 4 weeks", "type": "functional, organism-based", "settings": "dose 2-10 mg/kg"}, "[16]": {"test_system": "Mus musculus", "assay": "Anti-alzheimer activity in 8 month old 3xTg mouse model assessed as reversal of transcriptomic changes in Pttg1 at 10 mg/kg, po", "type": "functional, organism-based"}, "[17]": {"assay": "Tmax in C57BL/6 mouse plasma at 10 mg/kg, po measured upto 24 hrs by LC-MS/MS analysis", "type": "ADME, organism-based"}, "[18]": {"test_system": "Microglia", "assay": "Anti-necroptosis activity in LPS/zVAD stimulated mouse primary microglia overexpressed with ALK assessed as reversal of severe membrane disruption by TEM analysis", "type": "functional, cell-based"}, "[19]": {"molecular_target": "T1, Receptor-interacting serine/threonine-protein kinase 1 (Homo sapiens) (UniProt Q13546)", "T1 sequence (whole entry)": "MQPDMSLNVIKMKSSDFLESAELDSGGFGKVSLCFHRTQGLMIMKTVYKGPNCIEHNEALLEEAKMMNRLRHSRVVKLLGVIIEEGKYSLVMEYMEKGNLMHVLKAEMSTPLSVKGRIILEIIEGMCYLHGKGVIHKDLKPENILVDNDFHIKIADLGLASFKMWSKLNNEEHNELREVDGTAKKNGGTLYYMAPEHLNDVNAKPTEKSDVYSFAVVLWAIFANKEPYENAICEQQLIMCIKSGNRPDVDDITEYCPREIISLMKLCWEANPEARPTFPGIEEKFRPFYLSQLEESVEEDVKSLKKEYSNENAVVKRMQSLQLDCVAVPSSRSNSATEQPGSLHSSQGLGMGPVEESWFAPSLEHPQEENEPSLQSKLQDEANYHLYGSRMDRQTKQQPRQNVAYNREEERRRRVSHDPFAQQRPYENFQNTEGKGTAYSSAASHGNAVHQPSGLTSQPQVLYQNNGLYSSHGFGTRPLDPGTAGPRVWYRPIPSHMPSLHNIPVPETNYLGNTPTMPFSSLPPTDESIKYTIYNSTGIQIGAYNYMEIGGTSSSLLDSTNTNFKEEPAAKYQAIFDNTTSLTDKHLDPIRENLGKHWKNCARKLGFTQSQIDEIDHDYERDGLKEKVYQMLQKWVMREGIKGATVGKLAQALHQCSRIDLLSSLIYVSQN", "assay": "Inhibition of RIPK1 (unknown origin) at 1 uM"}, "[20]": {"molecular_target": "Mitogen-activated protein kinase kinase kinase kinase 4 (Homo sapiens, UniProt O95819)", "sequence (O95819 whole entry, the tested form may be a part)": "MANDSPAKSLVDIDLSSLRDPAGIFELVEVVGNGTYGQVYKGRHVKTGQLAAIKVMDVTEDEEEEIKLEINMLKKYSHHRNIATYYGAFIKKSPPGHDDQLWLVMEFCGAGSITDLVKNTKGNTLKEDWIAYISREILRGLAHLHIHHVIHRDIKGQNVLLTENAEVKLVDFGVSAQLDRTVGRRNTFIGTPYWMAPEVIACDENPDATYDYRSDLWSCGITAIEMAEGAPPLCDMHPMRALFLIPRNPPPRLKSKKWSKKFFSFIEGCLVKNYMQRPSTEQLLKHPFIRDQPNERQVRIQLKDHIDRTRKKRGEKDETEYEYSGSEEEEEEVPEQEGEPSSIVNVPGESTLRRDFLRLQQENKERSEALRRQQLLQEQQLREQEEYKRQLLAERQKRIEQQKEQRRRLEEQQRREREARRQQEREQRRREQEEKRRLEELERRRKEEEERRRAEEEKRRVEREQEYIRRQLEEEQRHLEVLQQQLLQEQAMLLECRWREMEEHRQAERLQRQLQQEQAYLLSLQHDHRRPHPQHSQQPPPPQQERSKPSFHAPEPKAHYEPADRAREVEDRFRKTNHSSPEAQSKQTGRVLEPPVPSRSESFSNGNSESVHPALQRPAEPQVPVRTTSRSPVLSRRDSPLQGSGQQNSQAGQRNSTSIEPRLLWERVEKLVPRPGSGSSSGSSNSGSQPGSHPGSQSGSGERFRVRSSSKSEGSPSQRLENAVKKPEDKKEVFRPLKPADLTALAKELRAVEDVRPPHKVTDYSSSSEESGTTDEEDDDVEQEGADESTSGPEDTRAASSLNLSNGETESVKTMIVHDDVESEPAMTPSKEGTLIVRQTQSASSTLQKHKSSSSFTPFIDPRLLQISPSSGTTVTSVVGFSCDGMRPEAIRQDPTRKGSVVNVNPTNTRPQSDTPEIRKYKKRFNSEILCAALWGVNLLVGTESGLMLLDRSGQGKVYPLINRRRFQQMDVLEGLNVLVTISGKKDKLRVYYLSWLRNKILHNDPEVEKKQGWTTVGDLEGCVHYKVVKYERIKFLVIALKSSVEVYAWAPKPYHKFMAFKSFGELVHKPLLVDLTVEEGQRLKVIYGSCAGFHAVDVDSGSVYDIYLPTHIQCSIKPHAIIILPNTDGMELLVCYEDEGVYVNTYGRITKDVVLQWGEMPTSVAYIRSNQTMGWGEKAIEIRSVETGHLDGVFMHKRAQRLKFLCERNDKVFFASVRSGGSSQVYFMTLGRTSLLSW", "assay": "Inhibition of recombinant MAP4K4 (1 to 328 residues) (unknown origin) expressed in Escherichia coli BL21([…]) using MBP as substrate preincubated for 15 mins followed by substrate and ATP addition and measured after 90 mins by ADP-Glo luminescence […] assay"}, "[21]": {"assay": "Metabolic stability in human liver microsomes assessed as half-life at 1 uM measured upto 60 mins in presence of NADPH and UDPGA by LC-MS/MS analysis", "type": "ADME, Microsome"}, "[22]": {"test_system": "BV-2", "assay": "Cytotoxicity against mouse BV-2 cells at 10 uM", "type": "toxicity, cell-based", "settings": "bv-2, 10 µM"}, "[23]": {"assay": "Metabolic stability in human liver microsomes assessed as clearance at 1 uM measured upto 60 mins in presence of NADPH and UDPGA by LC-MS/MS analysis", "type": "ADME, Microsome", "settings": "1 h"}, "[24]": {"molecular_target": "Cytochrome P450 1A2 (Homo sapiens, UniProt P05177)", "sequence (P05177 whole entry)": "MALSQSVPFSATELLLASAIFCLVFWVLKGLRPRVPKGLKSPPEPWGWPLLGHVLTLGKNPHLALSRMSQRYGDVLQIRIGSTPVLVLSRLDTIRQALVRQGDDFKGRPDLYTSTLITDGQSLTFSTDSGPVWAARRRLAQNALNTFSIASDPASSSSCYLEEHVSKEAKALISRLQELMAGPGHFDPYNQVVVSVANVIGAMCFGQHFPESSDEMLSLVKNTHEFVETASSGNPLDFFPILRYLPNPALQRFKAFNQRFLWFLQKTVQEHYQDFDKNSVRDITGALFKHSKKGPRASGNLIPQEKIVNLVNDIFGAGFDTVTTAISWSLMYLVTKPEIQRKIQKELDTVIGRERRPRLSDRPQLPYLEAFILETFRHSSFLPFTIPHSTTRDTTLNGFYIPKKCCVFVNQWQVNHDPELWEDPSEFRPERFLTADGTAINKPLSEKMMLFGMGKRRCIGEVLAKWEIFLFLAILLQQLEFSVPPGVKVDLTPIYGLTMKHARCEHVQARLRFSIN", "assay": "Inhibition of CYP1A2 (unknown origin) using phenacetin as substrate incubated for 10 mins in presence of NADPH by LC-MS/MS analysis", "type": "ADME"}, "[25]": {"test_system": "Microglia", "assay": "Anti-necroptosis activity in LPS/zVAD stimulated mouse primary microglia transfected with HA-tagged MAP4K4 plasmid assessed as protection of microglia cells at 100 nM", "type": "functional, cell-based"}, "[26]": {"molecular_target": "ALK tyrosine kinase receptor (Homo sapiens, UniProt Q9UM73)", "sequence (Q9UM73 19-1620 limits assumed)": "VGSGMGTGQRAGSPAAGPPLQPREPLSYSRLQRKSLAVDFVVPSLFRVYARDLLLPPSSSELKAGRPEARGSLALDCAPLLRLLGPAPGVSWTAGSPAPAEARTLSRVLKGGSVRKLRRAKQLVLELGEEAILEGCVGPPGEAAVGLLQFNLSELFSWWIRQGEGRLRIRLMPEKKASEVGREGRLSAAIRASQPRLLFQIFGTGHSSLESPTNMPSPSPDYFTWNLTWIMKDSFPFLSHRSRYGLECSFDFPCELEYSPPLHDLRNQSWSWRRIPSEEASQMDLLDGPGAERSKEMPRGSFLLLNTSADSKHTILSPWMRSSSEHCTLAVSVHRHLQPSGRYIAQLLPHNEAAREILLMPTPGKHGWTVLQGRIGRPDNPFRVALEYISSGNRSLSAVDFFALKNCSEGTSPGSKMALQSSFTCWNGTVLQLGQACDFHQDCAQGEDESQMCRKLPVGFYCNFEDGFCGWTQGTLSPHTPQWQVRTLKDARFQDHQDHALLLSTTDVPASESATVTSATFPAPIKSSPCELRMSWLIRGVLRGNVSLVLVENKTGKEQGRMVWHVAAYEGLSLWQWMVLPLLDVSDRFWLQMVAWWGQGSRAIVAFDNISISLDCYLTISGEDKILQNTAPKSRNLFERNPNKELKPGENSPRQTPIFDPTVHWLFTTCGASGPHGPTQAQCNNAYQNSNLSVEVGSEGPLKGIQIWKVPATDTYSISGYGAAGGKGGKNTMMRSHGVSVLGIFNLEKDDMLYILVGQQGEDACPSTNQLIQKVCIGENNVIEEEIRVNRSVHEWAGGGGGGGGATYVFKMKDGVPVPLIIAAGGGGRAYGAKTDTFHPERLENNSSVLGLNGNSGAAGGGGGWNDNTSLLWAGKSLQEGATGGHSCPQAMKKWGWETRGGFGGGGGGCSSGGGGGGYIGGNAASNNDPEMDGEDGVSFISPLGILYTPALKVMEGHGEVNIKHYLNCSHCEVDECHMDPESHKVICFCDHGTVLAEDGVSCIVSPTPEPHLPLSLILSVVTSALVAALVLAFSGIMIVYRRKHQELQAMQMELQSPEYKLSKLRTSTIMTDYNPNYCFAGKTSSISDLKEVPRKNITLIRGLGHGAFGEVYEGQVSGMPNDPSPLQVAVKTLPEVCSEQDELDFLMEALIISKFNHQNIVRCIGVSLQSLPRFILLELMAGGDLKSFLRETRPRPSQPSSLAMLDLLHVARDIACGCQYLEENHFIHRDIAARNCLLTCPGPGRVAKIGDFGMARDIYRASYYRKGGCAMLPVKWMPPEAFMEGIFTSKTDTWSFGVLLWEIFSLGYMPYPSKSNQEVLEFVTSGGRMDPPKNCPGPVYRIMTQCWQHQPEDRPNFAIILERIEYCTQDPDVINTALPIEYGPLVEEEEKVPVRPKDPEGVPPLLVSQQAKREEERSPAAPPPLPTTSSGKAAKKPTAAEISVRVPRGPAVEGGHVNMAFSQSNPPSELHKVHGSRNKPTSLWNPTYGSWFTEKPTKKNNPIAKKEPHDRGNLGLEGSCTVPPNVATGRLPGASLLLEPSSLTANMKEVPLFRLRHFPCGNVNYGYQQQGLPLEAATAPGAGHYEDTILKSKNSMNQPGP", "assay": "Inhibition of ALK (unknown origin) at 1 uM"}, "[27]": {"test_system": "BV-2", "assay": "Anti-inflammatory activity against LPS/zVAD treated mouse BV-2 cells assessed as decrease in TNFalpha release at 100 nM by ELISA", "type": "functional, cell-based"}, "[28]": {"test_system": "Mus musculus", "assay": "Anti-necroptosis activity in 3xTg mouse hippocampus assessed as reduction in Iba activation at 2 to 10 mg/kg, po", "type": "functional, organism-based", "settings": "dose 2-10 mg/kg"}, "[29]": {"assay": "Cmax in C57BL/6 mouse plasma at 10 mg/kg, po measured upto 24 hrs by LC-MS/MS analysis", "type": "ADME, organism-based"}, "[30]": {"test_system": "Microglia", "assay": "Anti-necroptosis activity in LPS/zVAD stimulated mouse primary microglia overexpressed with ALK assessed as reversal of translucent cytoplasm by TEM analysis", "type": "functional, cell-based"}, "[31]": {"test_system": "Microglia", "assay": "Anti-necroptosis activity in LPS/zVAD stimulated mouse primary microglia assessed as reversal of severe membrane disruption by TEM analysis", "type": "functional, cell-based"}, "[32]": {"test_system": "Microglia", "assay": "Anti-necroptosis activity in LPS/zVAD stimulated mouse primary microglia overexpressed with RIPK1 assessed as reversal of severe membrane disruption by TEM analysis", "type": "functional, cell-based"}},
  "note": "pIC50: −log10 of the molar value. Active and inactive are the calls of the source. The calls are words filed in the database; no cut-off is given here.",
  "data": [
    {"smiles": "Cc1cc(F)cc(Nc2ncc(Nc3ccc(SC(F)(F)F)cc3)cc2C(N)=O)c1", "values": [
      {"measurement": "Activity", "setting": "[1]", "value": "Active"},
      {"measurement": "Activity", "setting": "[2]", "value": "Active"},
      {"measurement": "Activity", "setting": "[3]", "value": "Active; Activity More Potent Than Nec-1"},
      {"measurement": "Activity", "setting": "[4]", "value": "Active"},
      {"measurement": "half-life", "setting": "[5]", "value": 8.46, "unit": "h"},
      {"measurement": "Activity", "setting": "[6]", "value": "Active"},
      {"measurement": "Activity", "setting": "[7]", "value": "inactive"},
      {"measurement": "Cmax", "setting": "[8]", "value": 290, "unit": "ng/mL"},
      {"measurement": "Activity", "setting": "[9]", "value": "Active"},
      {"measurement": "Activity", "setting": "[10]", "value": "inactive"},
      {"measurement": "Activity", "setting": "[11]", "value": "inactive"},
      {"measurement": "Activity", "setting": "[12]", "value": "Active"},
      {"measurement": "Activity", "setting": "[13]", "value": "Active"},
      {"measurement": "Activity", "setting": "[14]", "value": "Active"},
      {"measurement": "Activity", "setting": "[15]", "value": "Active"},
      {"measurement": "Activity", "setting": "[16]", "value": "Active"},
      {"measurement": "Tmax", "setting": "[17]", "value": 2.93, "unit": "h"},
      {"measurement": "Activity", "setting": "[18]", "value": "inactive"},
      {"measurement": "inhibition", "setting": "[19]", "value": "Active"},
      {"measurement": "pIC50", "setting": "[20]", "value": 6.39},
      {"measurement": "half-life at 1 µM", "setting": "[21]", "value": 3.22, "unit": "h"},
      {"measurement": "Activity", "setting": "[22]", "value": "Toxic"},
      {"measurement": "CLH", "setting": "[23]", "value": 7, "unit": "µL/min/mg"},
      {"measurement": "pIC50", "setting": "[24]", "value": "< 5.00"},
      {"measurement": "Activity", "setting": "[25]", "value": "inactive"},
      {"measurement": "inhibition", "setting": "[26]", "value": "Active"},
      {"measurement": "Activity", "setting": "[27]", "value": "Active"},
      {"measurement": "Activity", "setting": "[28]", "value": "Active"},
      {"measurement": "Cmax", "setting": "[29]", "value": 1180, "unit": "ng/mL"},
      {"measurement": "Activity", "setting": "[30]", "value": "inactive"},
      {"measurement": "Activity", "setting": "[31]", "value": "Active"},
      {"measurement": "Activity", "setting": "[32]", "value": "inactive"}
    ]}
  ]
}
